Common to all, as to format: cell-based
Holding throughout (settings): results to date

The subject of one data set is strain TA100. As to the kind of experiment: Ames mutagenicity evaluation, strain TA100. The protocol: (§1) Ames mutagenicity evaluations of Compounds A-D were performed by the School of Pharmacy, University of Missouri at Kansas City (UMKC). Results to date have shown Compounds A, C, and D to be negative in strains TA100 and TA97A.
On the technique in general: The Ames test uses bacterial strains that need an amino acid and regain growth without it when mutated back.

Another data set concerns strain TA97A. Nature of the data set: Ames mutagenicity evaluation, strain TA97A. The protocol: as §1
The test system of a further data set is strain TA1535. As to the kind of experiment: Ames mutagenicity evaluation, strain TA1535.
Another data set has as its system strain TA102. As to the kind of experiment: Ames mutagenicity evaluation, strain TA102.
The subject of another data set is strain TA98. Nature of the data set: Ames mutagenicity evaluation, strain TA98.

The values that follow come from patent US20080085494A1, “Dental Compositions Containing Oxirane Monomers” (priority 2004, published 2008).

With `c1ccc(OCCCCCCOc2ccccc2CC2CO2)c(CC2CO2)c1` (centres unmarked) [Compound D, 1,6-Bis[2-(2,3-epoxypropyl)phenoxy]hexane], the Ames mutagenicity entry with strain TA100 and in the data set on strain TA97A was “negative” each time.

In the case of `c1ccc(OCCCOc2ccccc2CC2CO2)c(CC2CO2)c1` (centres unmarked) [Compound B, 1,3-Bis[2-(2,3-epoxypropyl)phenoxy]propane], the Ames mutagenicity result is “negative” in the data set with strain TA1535; “negative” in the data set on strain TA102; “negative” in the data set on strain TA98; “negative” with strain TA100; “marginally positive” in the data set with strain TA97A.

For `c1ccc(OCCCCCOc2ccccc2CC2CO2)c(CC2CO2)c1` (centres unmarked) [Compound C, 1,5-Bis[2-(2,3-epoxypropyl)phenoxy]pentane], the Ames mutagenicity entry in the data set on strain TA100 and in the data set with strain TA97A was “negative” throughout.

Consider `c1ccc(OCCCCCCCCCCOc2ccccc2CC2CO2)c(CC2CO2)c1` (centres unmarked) [Compound A, 1,10-Bis[2-(2,3-epoxypropyl)phenoxy]decane], for which the Ames mutagenicity entry in the data set with strain TA100 and in the data set on strain TA97A was “negative” throughout.
